The values that follow come from ChEMBL document CHEMBL3988442, “University of Dundee, Small-Polar-MMV Screening Library” (2021).

A short description of experiment [1]: microbe, parasite or virus in culture. The settings on record: Mycobacterium tuberculosis, 96 h, read-out: pIC50 (converted).
Experiment [2] is described as follows: microbe, parasite or virus in culture. The settings on record: Mycobacterium tuberculosis, 72 h, read-out: pIC50 (converted).

As for `CCCc1nn(Cc2csc(C(C)C)n2)c(=O)o1`, the IC50 in experiment [1] is 20.4 µM; in experiment [2], 3.08 µM.

On to `Cn1cnc2c1CCN(c1ccnc(-c3ccccc3)n1)C2`, for which the IC50 was 38.1 µM in experiment [1] and 15.6 µM in experiment [2].

On to `Cc1ccc(Cl)c(NC(=O)NC2(C)CCOC2)c1` (centres undefined), for which the IC50 in experiment [1] and in experiment [2] was greater than 50.1 µM in each case.

Consider `N#Cc1cnc2cc(F)cc(F)c2c1NC1CCN(CC(N)=O)CC1`, for which the IC50 in experiment [1] and in experiment [2] was greater than 50.1 µM each time.

As to `CN(Cc1nnc(C2CC2)o1)Cc1ccccc1-c1ccccc1`, the IC50 in experiment [1] was greater than 50.1 µM; in experiment [2] it was 24.7 µM.

`CC(C)c1nnc(CN(C)Cc2ccccc2-c2ccccc2)o1`: the IC50 in experiment [1] is 11.8 µM; in experiment [2], 15.8 µM.

For `O=C(Cc1ccc2c(c1)CCCC2)Nc1cccnc1N1CCSCC1`, the IC50 was 9.97 µM in experiment [1] and 12 µM in experiment [2].

Consider `CC(C)Oc1cccc(CN(C)C(=O)Cc2ccon2)c1`, for which the IC50 in experiment [1] and in experiment [2] was greater than 50.1 µM in each case.

For `COC(=O)C(NC(=O)c1ccc(NC2CC2)nc1)c1ccccc1` (centres undefined), the IC50 in experiment [1] was 21.9 µM; in experiment [2], greater than 50.1 µM.

As for `CCCNc1nc(CS(=O)(=O)c2ccccc2)cs1`, the IC50 in experiment [1] and in experiment [2] was greater than 50.1 µM each time.

Take `COC(=O)C(NC(=O)c1ccc(N(C)C)nc1)c1ccccc1` (centres undefined): the IC50 in experiment [1] was 10.2 µM; in experiment [2], 33.2 µM.

As to `CCC(=O)Nc1nnc2n(Cc3cccc(OC)c3)[nH]c(C)c1-2`, the IC50 in experiment [1] and in experiment [2] was greater than 50.1 µM in each case.

Take `O=C(c1cc(C2CCCC2)no1)N1CCCCC1`: the IC50 in experiment [1] is 4.9 µM; in experiment [2], 2.4 µM.

Consider `COc1ccc(C(=O)NC2COc3ccccc3C2)cc1OCC(=O)O` (centres undefined), for which the IC50 in experiment [1] is 26 µM; in experiment [2] it was greater than 50.1 µM.

Regarding `Cc1ccccc1CN1CCCN(S(=O)(=O)N(C)C2CCCCC2)CC1`, the IC50 in experiment [1] and in experiment [2] was greater than 50.1 µM each time.

On to `CNC(=O)NCCc1csc2ccccc12`, for which the IC50 in experiment [1] and in experiment [2] was greater than 50.1 µM each time.

Consider `Cc1nonc1NC(=O)CCn1cc(Br)ccc1=O`, for which the IC50 in experiment [1] and in experiment [2] was greater than 50.1 µM in each case.

Turning to `COCCCN(C)c1nc(-c2ccncc2)nc(C)c1C`, the IC50 in experiment [1] was 6.84 µM; in experiment [2], 11.8 µM.

Turning to `CC(C)Cc1noc(CNc2cc3c(cc2Cl)OCCCO3)n1`, the IC50 in experiment [1] was 27.1 µM; in experiment [2], greater than 50.1 µM.

Consider `CCc1noc(CNc2cc3c(cc2Cl)OCCCO3)n1`, for which the IC50 in experiment [1] and in experiment [2] was greater than 50.1 µM in each case.

For the compound `Cc1ccc(C2CCCN2Cc2nc(-c3ccco3)no2)cc1` (centres undefined), the IC50 in experiment [1] was 18.7 µM; in experiment [2] it was 21.8 µM.

On to `N#CC1(NC(=O)COc2cc(Cl)cc(Cl)c2)CCSC1` (centres undefined), for which the IC50 in experiment [1] and in experiment [2] was greater than 50.1 µM each time.

In the case of `COc1ccc(C)cc1CN1CCn2cccc2C1C` (centres undefined), the figures for the IC50 in experiment [1] and in experiment [2] were 45.6 µM and 18.5 µM, respectively.

`CC(C)C(C)N(C)Cc1nnc(-c2ccc(Br)s2)o1` (centres undefined): the IC50 in experiment [1] was 20.4 µM; in experiment [2] it was 48.4 µM.

As for `CC(C1CC1)N(C)Cc1nnc(-c2ccc(Br)s2)o1` (centres undefined), the IC50 in experiment [1] is 42.1 µM; in experiment [2], 2.95 µM.

Turning to `CCN(C)c1ccc(CNC(=O)CCn2cc(C)cn2)cc1F`, the IC50 in experiment [1] and in experiment [2] was greater than 50.1 µM each time.

On to `O=C(OCCNc1ncccn1)c1ccc(Cl)s1`, for which the figures for the IC50 in experiment [1] and in experiment [2] were greater than 50.1 µM and 29.7 µM, respectively.

As to `O=C(OCCNc1ncccn1)c1ccc(Br)s1`, the IC50 was 29.8 µM in experiment [1] and greater than 50.1 µM in experiment [2].

As for `CC1(NC(=O)CC2CCc3ccccc32)CCOCC1` (centres undefined), the IC50 in experiment [1] and in experiment [2] was greater than 50.1 µM each time.

With `COc1cccc2c1CCCCN2C(=O)c1oc(C)nc1C`, the IC50 in experiment [1] and in experiment [2] was greater than 50.1 µM throughout.

As for `FC(F)(F)Sc1ccccc1NCc1nc(C2CC2)no1`, the IC50 was greater than 50.1 µM in experiment [1] and 15.7 µM in experiment [2].

On to `CC(C)COc1cncc(N(C)C2CCN(c3ncccn3)CC2)n1`, for which the IC50 was 40.6 µM in experiment [1] and 30 µM in experiment [2].

As to `COCCN(C)CC1CCCN1S(=O)(=O)c1cccc(F)c1F` (centres undefined), the IC50 in experiment [1] is greater than 50.1 µM; in experiment [2] it was 15 µM.

As to `Cc1nc(-c2nnc[nH]2)sc1C(=O)N1CCCC1Cn1cccn1` (centres undefined), the IC50 in experiment [1] and in experiment [2] was greater than 50.1 µM in each case.

For the compound `c1cnc(-c2nc(C3CCOC3)no2)cn1` (centres undefined), the IC50 in experiment [1] and in experiment [2] was greater than 50.1 µM each time.

Turning to `CN1CCOC(CNCCOc2cccc(C#N)c2)C1` (centres undefined), the IC50 in experiment [1] and in experiment [2] was greater than 50.1 µM throughout.

`COc1cc(C)sc1C(=O)NCCNc1ccccc1`: the values for the IC50 in experiment [1] and in experiment [2] were 4.3 µM and 5.82 µM, respectively.

Consider `COCCCSc1ccc(NCc2ccc(C)cn2)cc1`, for which the results for the IC50 in experiment [1] and in experiment [2] were 49.1 µM and greater than 50.1 µM, respectively.

`COCCCSc1ccc(NCc2scnc2C)cc1`: the results for the IC50 in experiment [1] and in experiment [2] were 38.7 µM and 25.4 µM, respectively.

On to `CCNc1cc2c(nn1)CCN(C(=O)C1COc3ccccc3C1)C2` (centres undefined), for which the values for the IC50 in experiment [1] and in experiment [2] were 45 µM and 44.6 µM, respectively.

For `COc1ccnc(N2CCCN(c3nc(C4CC4)ns3)CC2)n1`, the IC50 in experiment [1] and in experiment [2] was greater than 50.1 µM in each case.

In the case of `CC(=O)c1ccc(C(=O)Nc2ccnc(N(C)C)n2)cc1`, the IC50 in experiment [1] and in experiment [2] was greater than 50.1 µM each time.

Consider `CN(C)c1ccc(C(=O)N2CCCC2c2ccc(Cl)cc2)nn1` (centres undefined), for which the IC50 in experiment [1] and in experiment [2] was greater than 50.1 µM in each case.

With `CN(C)c1ccc(C(=O)N2CCCC2c2cnn(C)c2)nn1` (centres undefined), the IC50 in experiment [1] and in experiment [2] was greater than 50.1 µM each time.

Regarding `Cc1cccc(-c2ccc(C(=O)NCCN3CCOCC3)c(=O)[nH]2)c1`, the IC50 in experiment [1] and in experiment [2] was greater than 50.1 µM throughout.

In the case of `COCCC(C)NC(=O)Nc1ccc(N2CCOC2=O)c(OC)c1` (centres undefined), the IC50 in experiment [1] and in experiment [2] was greater than 50.1 µM in each case.

In the case of `O=C(NCc1nnc2n1CCCCC2)N(Cc1ccncc1)C1CC1`, the IC50 in experiment [1] and in experiment [2] was greater than 50.1 µM each time.

For `Cc1cc2n(n1)CC(CNC1CCN(C3CC3)CC1)CN2` (centres undefined), the IC50 in experiment [1] and in experiment [2] was greater than 50.1 µM each time.

For `Cc1nc(CN2CCC(CNC(=O)NCCC3CCC3)CC2)oc1C`, the IC50 in experiment [1] is 0.791 µM; in experiment [2], 1.06 µM.

Consider `COC(=O)COc1cc(NCc2c(C)noc2C)c(Cl)cc1C`, for which the IC50 in experiment [1] was 35 µM; in experiment [2], 32.1 µM.

In the case of `CCc1nc(CN2CCCN(c3cnc4ccccc4n3)CC2)no1`, the IC50 was 26.5 µM in experiment [1] and greater than 50.1 µM in experiment [2].

As for `CC(C)C1CN(C(=O)c2ccccc2)CCS1` (centres undefined), the IC50 in experiment [1] is 12.6 µM; in experiment [2], 8.62 µM.

For `COc1cc(C(=O)N(Cc2cccs2)C2CC2)cc2c1OCCO2`, the IC50 in experiment [1] and in experiment [2] was greater than 50.1 µM in each case.

`CN(Cc1ccc(Cl)s1)C(=O)Cn1nc(-c2ccc(F)cc2)oc1=O`: the IC50 in experiment [1] and in experiment [2] was greater than 50.1 µM each time.

As to `c1cc(CNCc2ccc(-n3cncn3)nc2)cc(OC2CCCC2)c1`, the IC50 in experiment [1] was 33.9 µM; in experiment [2] it was 35 µM.

`CC(C)(C)c1n[nH]cc1CNCC1CCN(C2CC2)C1` (centres undefined): the IC50 is 27.6 µM in experiment [1] and 28.5 µM in experiment [2].

Regarding `CC(NCc1ccc(OCC(N)=O)cc1)c1ccc(Cl)cc1Cl` (centres undefined), the IC50 was 18.8 µM in experiment [1] and 49 µM in experiment [2].
